PubChem BioAssay AID652280 (Broad Institute, 2013)
Inconclusive results are not listed. Activity calls are given as the source filed them. How the calls were made is not given here.

Experiment: mouse embryonic fibroblast toxicity – cell-based, plate reader, dry powder, set 2, cytotoxicity control, dose response (AID 652280)
Details: NIH/3T3 mouse fibroblast toxicity, plate reader; at 16 µM (top of the series)

Structure (SMILES) | activity change, negative = toxicity
CN(C)C(=O)c1ccc(-c2ccc([C@H]3[C@H](CO)N4CCCCN(C(=O)C5CCCC5)C[C@@H]34)cc2)cc1 | -15.7% (inactive)
O=C(Cn1ccnc1[N+](=O)[O-])NCc1ccccc1 | 17.4% (inactive)
C[C@H]1CN([C@@H](C)CO)C(=O)c2cccc(NC(=O)c3ccncc3)c2O[C@@H]1CN(C)Cc1ccccc1Cl | -7.97% (inactive)
CN1CCCCN2[C@@H](CO)[C@H](c3ccc(Br)cc3)[C@@H]2C1 | -2.42% (inactive)
COc1ccc(S(=O)(=O)N(C)C[C@H]2OCCCC[C@@H](C)Oc3ccc(N(C)C)cc3C(=O)N([C@H](C)CO)C[C@@H]2C)cc1 | 12.3% (inactive)
CC(C)(C)S(=O)N1Cc2cc(C(=O)NCc3ccc4c(c3)OCO4)nc(-c3cccc(-c4cccc(F)c4)c3)c2[C@@H]1CCO (stereo partly specified) | -21.2% (inactive)
CCOC(=O)c1cc2c(c(-c3cccc(C#CCN(C)C)c3)n1)[C@H](CCO)N(S(=O)C(C)(C)C)C2 (stereo partly specified) | -9.39% (inactive)
COc1ccc(C#Cc2cccc(-c3nc(C(=O)NCc4ccc5c(c4)OCO5)cc4c3[C@@H](CCO)N(S(=O)C(C)(C)C)C4)c2)cc1OC (stereo partly specified) | 9.35% (inactive)
C[C@H]1CN([C@@H](C)CO)C(=O)c2cccc(NC(=O)c3ccncc3)c2O[C@@H]1CN(C)Cc1cc(Cl)ccc1Cl | 3.82% (inactive)
C[C@H]1CN([C@@H](C)CO)C(=O)c2cccc(NC(=O)c3ccncc3)c2O[C@@H]1CN(C)Cc1ccc(Cl)cc1Cl | -13.3% (inactive)
O=C(CN1CCOCC1)N1CCCCN2[C@@H](CO)[C@H](c3ccc(-c4ccccc4)cc3)[C@@H]2C1 | -1.37% (inactive)
CC(C)N1C[C@@H](C)[C@H](CN(C)C(=O)OC(C)(C)C)Oc2c(C#N)cccc2C1=O | -6.53% (inactive)
CC(C)N1C[C@H](CN2Cc3ccccc3C2)Oc2c(NC(=O)c3ccncc3)cccc2C1=O | 1.03% (inactive)
CN(C)CC#Cc1cccc(-c2nc(C(=O)NCCCN3CCOCC3)cc3c2[C@H](CCO)N(S(=O)C(C)(C)C)C3)c1 (stereo partly specified) | 16% (inactive)
C[C@@H]1CN([C@@H](C)CO)C(=O)c2cc(-c3cncnc3)cnc2O[C@H]1CN(C)Cc1ccc(Oc2ccccc2)cc1 | -26.5% (inactive)
CC(C)N1CC2(CN(Cc3ccc(F)c(F)c3)C2)Oc2c(NC(=O)c3ccncc3)cccc2C1=O | -3.93% (inactive)
CC(C)(C)S(=O)N1Cc2cc(C(=O)NCc3ccc4c(c3)OCO4)nc(-c3cccc(C#CCC4CCCC4)c3)c2[C@@H]1CCO (stereo partly specified) | 83.4% (inactive)
CC(C)N1C[C@@H](CN(C)Cc2ccc(Cl)cc2)Oc2c(C(=O)Nc3ccnnc3)cccc2C1=O | -4.49% (inactive)
CC(C)N1C[C@H](C)[C@@H](CN(C)Cc2ccc(Cl)cc2)Oc2c(NC(=O)c3ccncc3)cccc2C1=O | -13.4% (inactive)
C[C@H]1CN([C@@H](C)CO)C(=O)c2cccc(NC(=O)c3ccncc3)c2O[C@@H]1CN(C)Cc1cc(Cl)cc(Cl)c1 | 15% (inactive)
C[C@H]1CN([C@@H](C)CO)C(=O)c2cccc(NC(=O)c3ccncc3)c2O[C@@H]1CN(C)Cc1ccc(F)c(F)c1 | -6.64% (inactive)
CC(C)N1CC2(CN(Cc3ccccn3)C2)Oc2c(NC(=O)c3ccncc3)cccc2C1=O | -3.3% (inactive)
CN(C)C(=O)c1cccc(-c2ccc([C@H]3[C@@H](CO)N4CCCCN(C(=O)C5CCC5)C[C@@H]34)cc2)c1 | 1.53% (inactive)
CN(C)C(=O)c1cccc(-c2ccc([C@@H]3[C@@H](CO)N4CCCCN(C(=O)C5CCC5)C[C@H]34)cc2)c1 | 5.21% (inactive)
C[C@H]1CN([C@@H](C)CO)C(=O)c2cccc(NC(=O)c3ccncc3)c2O[C@@H]1CN(C)Cc1ccc(F)c(Cl)c1 | -32.5% (inactive)
CC(C)N1C[C@@H](CN(C)CCc2ccc(Cl)cc2)Oc2c(NC(=O)c3ccncc3)cccc2C1=O | -32% (inactive)
